According to patent publication US9759725B2, “Treatment-induced damage to the tumor micro-environment promotes cancer therapy resistance through extracellular proteins” (Fred Hutchinson Cancer Research Center, priority 2012, dated 2017):
“Also recorded” adds a separate entry of the source. Each block holds one compound with its values, some of them ahead of it.

Tests used:
[1] = test system: WNT16B promoter; experiment: WNT16B promoter luciferase reporter assay; format: cell-based, human; details: compared to untreated cells
Excerpt: The immediate 5′ upstream sequences containing putative NF-κB binding elements of the WNT16B gene were amplified from genomic DNA extracted from PSC27 cells by a DNeasy Blood and Tissue kit (QIAGEN). PCR products were cloned into pCR2.1-TOPO vector (Invitrogen) and each insert was sequenced for confirmation. PCR fragments were then double-digested and subcloned into a reporter luciferase vector pGL4.22 vector. Constructs containing one or multiple mutant NF-κB binding sites were generated from the reporter vector series by site-directed mutagenesis. The NAT11-Luc2CP-IRES-nEGFP control construct that contains large copy numbers of NF-κB binding sequences and an optimized IL-2 minimal promoter as part of NFκB-activated transgene (NAT) system was kindly provided by Dr. Hatakeyama (Hokkaido University). All constructs were confirmed by DNA sequencing in both directions. Reporter vectors were co-transfected with pRL-TK vector for transfection efficiency controls and internal normalization for gene expression measurements. Cells were either treated with 20 ng/ml TNF-α for 90 min, exposed to 10 Gy γ-irradiation or 1 μM Mitoxantrone for 1 day. […] Luciferase activity was measured using the Luciferase Assay System and normalized luciferase activities were calculated as light units normalized to renilla luciferase activity present in each specimen.

[2] = test system: primary prostate fibroblasts (PSC27 cells)
Procedure: After treatment, the cells were rinsed 3 times with PBS and left to recover for 3 days in PSC medium.
Cells growing on coverslips were rinsed, subjected to fixation in 4% paraformaldehyde and permeabilization with 0.1% Triton-X100 prior to immunostaining Primary mouse monoclonal anti-phospho-Histone H2A.X (Ser139) (clone JBW301) and secondary antibody Alexa Fluor® 488 (or 594)-conjugated F(ab′)2 goat anti-mouse IgG were sequentially applied. Nuclei were counterstained with 2 μg/ml of 4′,6-diamidino-2-phenylindole (DAPI) and coverslips were mounted onto glass slides. Upon visual examination of the DNA damage extent with immunofluorescence microscopy, DDR foci were recorded with a 4-category counting strategy, namely 4 classes: 0 foci, 1 to 3 foci, 4 to 10 foci, and >10 foci. Data from each cell line/treatment were averaged from a pool of 3 independent fields counting 100 nuclei per pool.

[3] = test system: PC#/PSC27 cells; experiment: Subcutaneous grafts of PC#/PSC27 cells treated with systemic RAPA and MIT; format: in vivo; details: RAPA used with MIT
[4] = test system: prostate cancer cells; experiment: Trans-well invasion of prostate cancer cells in fibroblast conditioned medium; format: cell-based, human; details: 24 h of treatment
Procedure: All assays were performed at least three times and reported as mean values. Assays of cell proliferation were performed with the CellTiter96® AQueous One Solution Cell Proliferation Assay (MTS) with signals captured using a 96-well plate reader or by direct counting using a hemacytometer. For trans-well migration and invasion assays, serum-starved cells in serum-free medium were added to the top chambers of Cultrex 24-well Cell Migration Assay plates (8 μm size) coated with or without basement membrane extract (BM) prepared as 0.5× of stock solution. CM from fibroblasts or regular epithelial media containing 10% fetal calf serum (FCS) were added to the bottom chambers. Migrating or invading cells in the bottom chambers were stained and plate absorbance was recorded at 485/520 nm emission. Each assay was performed in triplicate and measured at 24 hour time points over 3 days and presented as the average absorbance of migrating cells and invading cells, with human HeLA cervical cancer cell line (ATCC) used as a reference positive control. […] Luciferase assays were performed using a Dual-Luciferase Reporter Assay kit, and fold induction for each cell line was calculated as normalized relative light units of TOPFLASH divided by those of FOPFLASH. […]

[5] = test system: prostate cancer cells; experiment: Chemoresistance (viability) assay with MIT in fibroblast conditioned medium; format: cell-based, human
Procedure: Chemoresistance assays were performed using epithelial cells cultured with either DMEM and low serum (0.5% FCS) (abbreviated as “DMEM”), or conditioned medium (CM) generated from PSC27, […] or OVF28901 cells expressing vector controls, WNT16B, or siRNAs. […] Cell viability was then assayed, and the percentage of viable cells was calculated by comparing each experiment to vehicle-treated cells. Each assay was repeated a minimum of 3 times with results reported as mean±s.e.m. For chemoresistance assays, various neoplastic epithelial cells were cultured with either DMEM of low serum (0.5% FBS) only (abbreviated as “DMEM”), or CM generated from PSC27, HBF1023 or OVF28901 in various states (e.g., WNT16B overexpression, WNT16B knockdown, irradiated). […] Cell viability was assayed by MTS or direct counting with trypan blue, and the percentage of viable cells was calculated by normalizing absorbance of each experiment to untreated cells. To assess the influence of WNT16B across a range of MIT concentrations, a series of drug concentrations were applied bracketing the IC50 dose, with percent survival plotted against MIT dose at a 3-day time point. […] Luciferase assays were performed using a Dual-Luciferase Reporter Assay kit, and fold induction for each cell line was calculated as normalized relative light units of TOPFLASH divided by those of FOPFLASH. […]

[6] = test system: prostate cancer cells; experiment: Proliferation of prostate cancer cells in fibroblast conditioned medium; format: cell-based, human; details: cell numbers 72 hours after treatment
Procedure: The cultures were incubated for 3 days after which cells were detached with trypsin and the total cell number was determined by direct counting with hemacytometer. The PSC27/BPH1-GFP proportion was determined on a FACScan using GFP fluorescence as a marker for BPH1-GFP cells. […] The supernatant was harvested, filtered, concentrated and either stored frozen at −80° C. or applied immediately. BPH1-GFP, PC3 and other cell lines were seeded in conditioned medium or fresh DMEM+0.5% FBS, and grown for specific time periods and the total number of cells was determined by direct counting. All assays were performed at least three times and reported as mean values. Assays of cell proliferation were performed with the CellTiter96® AQueous One Solution Cell Proliferation Assay (MTS) with signals captured using a 96-well plate reader or by direct counting using a hemacytometer. […] Migrating or invading cells in the bottom chambers were stained and plate absorbance was recorded at 485/520 nm emission. Each assay was performed in triplicate and measured at 24 hour time points over 3 days and presented as the average absorbance of migrating cells and invading cells, with human HeLA cervical cancer cell line (ATCC) used as a reference positive control. […]

[7] = test system: PC3 cells; experiment: Caspase 3/7 apoptosis assay of PC3 cells exposed to MIT; format: cell-based, human; details: 24 hour of MIT exposure (IC50)
Excerpt: For apoptosis assays, 0.2×10^6 PC3 cells were dispensed into 6-well culture plates and co-cultured with media conditioned from PSC27 sublines. […] For the morphological analysis, bright field pictures were taken for PC3 cells with inverted phase-contrast microscopy.

[8] = test system: epithelial cells; experiment: EMT-associated gene/protein expression in epithelial cells exposed to WNT16B conditioned medium; format: cell-based, human; details: epithelial cells in WNT16B fibroblast CM
[9] = test system: Wnt16b; experiment: Systemic effect of MIT on Wnt16b expression in mouse organs (Western immunoblot); format: in vivo; details: mice, three MIT treatments over eight weeks
Procedure: To determine the systemic effects of MIT treatment on Wnt16b expression, parallel experiments involved administering MIT or vehicle as per the treatment schema above, to cohorts of mice (n=6) without xenografts. At the completion of the 8-week treatment regimen, mice were euthanized and various tissues were rapidly resected and snap frozen or fixed in formalin. Following protein isolations, Western immunoblot analysis was performed for Wnt16b expression, as described above.

[10] = test system: PC3 cells; experiment: In vivo chemoresistance study: subrenal capsule xenografts treated with three cycles of MIT; parameters: species or system mouse
Procedure: All animal studies were performed in accordance with protocols approved by the Institutional Animal Care and Use Committee (IACUC) of Fred Hutchinson Cancer Research Center, and were carried out in accordance with the NIH Guide for laboratory animals. Mouse care/welfare and veterinary oversight were provided by the center animal care. ICR SCID mice (Taconic, Inc.) at an age of approximately 6 weeks (25 g body weight) were used. Rat tail collagen (high concentration, type I) was prepared before the ice-cold collagen solution was neutralized and adjusted to the proper osmolarity by adding a mixture of NaOH and ×10 PBS. To prepare tissue recombinants, fibroblasts (PSC27 strain) and epithelial cells (PC3, BPH1 or MDA-MB-231) were mixed at a ratio of 1:1, with each recombinant comprised of 250,000 cells of each line. After polymerization, the cell/collagen mixture was overlaid with growth medium and incubated at 37° C. for 1 hour before implantation.
Xenografting was performed under isoflurane anesthesia. A pocket beneath the back skin was formed using surgical scissors, with an oblique incision (<1 cm) made on the capsule surface parallel and adjacent to the long axis of each kidney. Cells were injected under the capsule with a blunt 25-gauge needle and a glass Hamilton syringe via a transrenal injection, forming a starting tumor with a volume of 1 to 2 mm^3. The kidney was returned to the retroperitoneal space and the skin was closed with surgical staples. The growth of xenografts was assessed at weekly intervals using ultrasound instruments. Animals were sacrificed at 2-8 weeks post transplantation, based on the tumor burden and pathological progression of tested animals. Upon dissection, tumor volume (V) was measured and calculated according to the tumor length (1) and width (w) by the following formula: V=(π/6)×((l+w)/2)^3 (Anand et al., Nat. Genet 31:301-305, 2002). Tumors were snap-frozen or processed conventionally for formalin fixation. Resulting sections were used for hematoxylin/eosin staining, and immunostaining for selected gene expression markers.
For chemoresistance studies, ICR SCID mice received subrenal capsule xenografts by implantation according to the procedure described above. After surgery, mice were given standard laboratory diets and water ad libitum for 2 weeks, to allow tumor uptake and growth initiation. Starting from the 3rd week (when tumor sizes reached from about 4 to about 8 mm in diameter), mice received Mitoxantrone at a dose of 0.2 mg/kg by i.p. injection, or vehicle control, on day 1 of week 3, week 5, and week 7 (Alderton et al., Cancer Res. 52:194-201, 1992). Between 8 and 12 mice were randomly assigned to each study arm. A total regimen of 3 2-week cycles was administered. After the final treatment cycle the mice were sacrificed, kidneys were removed for tumor measurement and histological analysis. The cumulative Mitoxantrone dose received per mouse was 0.6 mg/kg. Each experimental arm comprised 5-8 mice per treatment cohort.

[11] = test system: PC3 cells; experiment: Acute in vivo response to MIT: cleaved caspase 3 IHC in xenografts; parameters: species or system mouse; details: 24 hours after MIT
Procedure: For assessments of the acute effects of chemotherapy, mice harboring xenografts of PC3 cells combined with PSC27 fibroblasts were treated with Mitoxantrone 0.2 mg/kg by i.p. injection, or vehicle control. Xenografts were collected 24 hour after treatment and tissues were processed for IHC. Apoptosis was assessed by staining with anti-caspase 3 antibody (cleaved, BioCare Medical). On adjacent sections, immunostaining with anti-γH2AX (Upstate) was performed to quantitate cells with DNA-damage.

WNT16B reporter activity [1]: induced
Compound: TNF-α

Compound: OO [hydrogen peroxide]
number of γ-H2AX foci [2]: substantially increased

Compound: CO[C@H]1C[C@@H]2CC[C@@H](C)[C@@](O)(O2)C(=O)C(=O)N2CCCC[C@H]2C(=O)O[C@H]([C@H](C)C[C@@H]2CC[C@@H](O)[C@H](OC)C2)CC(=O)[C@H](C)/C=C(\C)[C@@H](O)[C@@H](OC)C(=O)[C@H](C)C[C@H](C)/C=C/C=C/C=C/1C [RAPA, Rapamycin]
reduction in tumor volumes [3]: approximately 60%

Compound: Oc1nc(-c2ccc(C(F)(F)F)cc2)nc2c1CSCC2 [XAV939]
invasive effect of the PSC27-RAD DDSP (full DDSP) [4]: markedly attenuated; also recorded: attenuates | invasive response induced by WNT16B [4]: completely suppressed; also recorded: suppresses | effects of PSC27-RAD-conditioned medium on promoting tumor cell survival [5]: attenuated | proliferative effect of the PSC27-RAD DDSP (full DDSP CM) [6]: markedly attenuated; also recorded: attenuates | proliferative response induced by WNT16B (PSC27^WNT16B CM) [6]: completely suppressed; also recorded: suppresses | attenuation of MIT apoptotic response by PSC27^WNT16B-conditioned medium [7]: blocked | WNT16B-induced EMT-associated gene expression [8]: blocked

Compound: O=C1c2c(O)ccc(O)c2C(=O)c2c(NCCNCCO)ccc(NCCNCCO)c21 [MIT, mitoxantrone]
expression of WNT16B protein in prostates, breasts and ovaries [9]: induced | tumor volumes, MIT vs no MIT ([10]; BPH-1 or PC3 plus PSC27^WNT16B or PSC27^C fibroblasts, three cycles of MIT): significantly reduced | tumor volume after MIT ([10]; PC3 + PSC27^C+shRNA^C grafts): 20 mm^3 | tumor volume after MIT ([10]; PC3+PSC27-RAD grafts (300 mm^3 without MIT)): 55 mm^3 | tumor volume after MIT ([10]; PC3+PSC27^C grafts): 13 mm^3 | tumor volume after MIT ([10]; PC3+PSC27^WNT16B grafts): 78 mm^3 | tumor size, MIT-treated vs untreated mice ([10]; tumor cells with unirradiated PSC27 fibroblasts (PSC27^C)): substantially smaller | number of γ-H2AX foci [2]: substantially increased | apoptotic cells (cleaved caspase 3 IHC) ([11]; PC3+PSC27^C grafts): 34% | apoptotic cells (cleaved caspase 3 IHC) ([11]; PC3+PSC27^WNT16B tumors): 14%

Compound: bleomycin
number of γ-H2AX foci [2]: substantially increased
